Bridge positions count the residues as written; N and C are the ends. Square brackets hold non-standard residues; d marks the D form. Peptide text beside a SMILES is read from it. * marks the point of attachment. DOTA = O=C(O)CN1CCN(CC(=O)O)CCN(CC(=O)*)CCN(CC(=O)O)CC1; Phe(4-CF3) = N[C@@H](Cc1ccc(C(F)(F)F)cc1)C(=O)O; Trp(5-F) = N[C@@H](Cc1c[nH]c2ccc(F)cc12)C(=O)O; Phe(2-CF3) = N[C@@H](Cc1ccccc1C(F)(F)F)C(=O)O; Trp(7-aza) = N[C@@H](Cc1c[nH]c2ncccc12)C(=O)O; Pro(trans-4-F) = O=C(O)[C@@H]1C[C@@H](F)CN1; Phe(4-F) = N[C@@H](Cc1ccc(F)cc1)C(=O)O; Gly(4-THP) = N[C@H](C(=O)O)C1CCOCC1; Nva(3-Et) = CCC(CC)[C@H](N)C(=O)O; Cha = N[C@@H](CC1CCCCC1)C(=O)O; Cba = N[C@@H](CC1CCC1)C(=O)O; Chg = N[C@H](C(=O)O)C1CCCCC1; Tle = CC(C)(C)[C@H](N)C(=O)O; Nle = CCCC[C@H](N)C(=O)O; Aze = O=C(O)[C@@H]1CCN1
These compounds were tested against T1, human DLL3 (Homo sapiens, UniProt Q9NYJ7) (assay: Affinity determination by Surface Plasmon Resonance (SPR)). Details: 25° C., biotinylated human DLL3 immobilized on streptavidin sensor chip, 1:1 binding model; read-out: SPR KD.
T1 sequence (Q9NYJ7 27-618): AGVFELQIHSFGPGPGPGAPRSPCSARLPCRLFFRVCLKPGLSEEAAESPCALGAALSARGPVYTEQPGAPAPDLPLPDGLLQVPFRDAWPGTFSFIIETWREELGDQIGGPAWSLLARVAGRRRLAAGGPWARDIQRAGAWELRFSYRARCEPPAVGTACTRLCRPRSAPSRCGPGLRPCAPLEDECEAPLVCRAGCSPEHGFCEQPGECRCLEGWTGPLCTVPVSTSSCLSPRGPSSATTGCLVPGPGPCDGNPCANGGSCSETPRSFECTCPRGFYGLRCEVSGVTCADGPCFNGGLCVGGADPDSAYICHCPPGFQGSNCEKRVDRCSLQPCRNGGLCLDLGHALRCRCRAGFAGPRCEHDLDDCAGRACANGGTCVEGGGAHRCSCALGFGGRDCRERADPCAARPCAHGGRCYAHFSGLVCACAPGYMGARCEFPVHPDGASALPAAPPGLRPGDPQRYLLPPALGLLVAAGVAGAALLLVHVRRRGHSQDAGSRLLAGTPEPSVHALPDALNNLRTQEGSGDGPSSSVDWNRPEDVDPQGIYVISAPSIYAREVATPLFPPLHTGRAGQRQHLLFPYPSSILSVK
Assay type: binding
Procedure, shortened: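 Kinetic and affinity constants were derived by fitting sensorgrams to a 1:1 binding model. Graded compound concentrations flowed at 100 μL/minute in 20 mM phosphate running buffer with 2% DMSO over streptavidin-immobilized biotinylated human DLL3, reference-subtracted.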

Row | Kd [nM] | SMILES
1 | 1 to 10 | CC(=O)N[C@@H](Cc1c[nH]c2ccc(F)cc12)C(=O)N[C@H](C(=O)N[C@@H](Cc1ccccc1C(F)(F)F)C(=O)N[C@H]1CSSC[C@@H](C(=O)N[C@@H](Cc2c[nH]c3ncccc23)C(=O)N2CC[C@H]2C(=O)N[C@H](CCCCNC(=O)CN2CCN(CC(=O)O)CCN(CC(=O)O)CCN(CC(=O)O)CC2)C(N)=O)NC(=O)[C@H](CC(=O)O)NC(=O)[C@H](Cc2cnc[nH]2)NC(=O)[C@H](Cc2ccc(F)cc2)NC(=O)[C@H](CC(N)=O)NC(=O)[C@H](CC(N)=O)NC1=O)[C@@H](C)O [compound 128, Ac-(5Fluoro-W)-T-(2CF3-F)-C(3)-N-N-(4Fluoro-F)-H-D-C(3)-(7Aza-W)-(Aze)-[D-Lys(DOTA)]-NH2] (Ac-[Trp(5-F)]T[Phe(2-CF3)]CNN[Phe(4-F)]HDC[Trp(7-aza)][Aze][dK](DOTA)-NH2; disulfide 4-10)
2 | 10 to 100 | CC(=O)N[C@@H](Cc1c[nH]c2ccc(F)cc12)C(=O)N[C@H](C(=O)N[C@H](C(=O)N[C@H]1CSSC[C@@H](C(=O)N[C@@H](Cc2c[nH]c3ncccc23)C(=O)N2C[C@H](F)C[C@H]2C(=O)N[C@H](CCCCNC(=O)CN2CCN(CC(=O)O)CCN(CC(=O)O)CCN(CC(=O)O)CC2)C(N)=O)NC(=O)[C@H](CC(=O)O)NC(=O)[C@H](Cc2cnc[nH]2)NC(=O)[C@H](Cc2ccc(F)cc2)NC(=O)[C@H](CC(N)=O)NC(=O)[C@H](CC(N)=O)NC1=O)C(C)(C)C)[C@@H](C)O [compound 129, Ac-(5Fluoro-W)-T-(Tbg)-C(3)-N-N-(4Fluoro-F)-H-D-C(3)-(7Aza-W)-(trans4Fluoro-P)-[D-Lys(DOTA)]-NH2] (Ac-[Trp(5-F)]T[Tle]CNN[Phe(4-F)]HDC[Trp(7-aza)][Pro(trans-4-F)][dK](DOTA)-NH2; disulfide 4-10)
3 | 1 to 10 | CCC(CC)[C@H](NC(=O)[C@@H](NC(=O)[C@H](Cc1c[nH]c2ccc(F)cc12)NC(C)=O)[C@@H](C)O)C(=O)N[C@H]1CSSC[C@@H](C(=O)N[C@@H](Cc2c[nH]c3ncccc23)C(=O)N2C[C@H](F)C[C@H]2C(=O)N[C@H](CCCCNC(=O)CN2CCN(CC(=O)O)CCN(CC(=O)O)CCN(CC(=O)O)CC2)C(N)=O)NC(=O)[C@H](CC(=O)O)NC(=O)[C@H](Cc2c[nH]cn2)NC(=O)[C@H](Cc2ccc(F)cc2)NC(=O)[C@H](CC(N)=O)NC(=O)[C@H](CC(N)=O)NC1=O [compound 130, Ac-(5Fluoro-W)-T-(Env)-C(3)-N-N-(4Fluoro-F)-H-D-C(3)-(7Aza-W)-(trans4Fluoro-P)-[D-Lys(DOTA)]-NH2] (Ac-[Trp(5-F)]T[Nva(3-Et)]CNN[Phe(4-F)]HDC[Trp(7-aza)][Pro(trans-4-F)][dK](DOTA)-NH2; disulfide 4-10)
4 | 1 to 10 | CC(=O)N[C@@H](Cc1c[nH]c2ccc(F)cc12)C(=O)N[C@H](C(=O)N[C@H](C(=O)N[C@H]1CSSC[C@@H](C(=O)N[C@@H](Cc2c[nH]c3ncccc23)C(=O)N2C[C@H](F)C[C@H]2C(=O)N[C@H](CCCCNC(=O)CN2CCN(CC(=O)O)CCN(CC(=O)O)CCN(CC(=O)O)CC2)C(N)=O)NC(=O)[C@H](CC(=O)O)NC(=O)[C@H](Cc2cnc[nH]2)NC(=O)[C@H](Cc2ccc(F)cc2)NC(=O)[C@H](CC(N)=O)NC(=O)[C@H](CC(N)=O)NC1=O)C1CCOCC1)[C@@H](C)O [compound 131, Ac-(5Fluoro-W)-T-(THPG)-C(3)-N-N-(4Fluoro-F)-H-D-C(3)-(7Aza-W)-(trans4Fluoro-P)-[D-Lys(DOTA)]-NH2] (Ac-[Trp(5-F)]T[Gly(4-THP)]CNN[Phe(4-F)]HDC[Trp(7-aza)][Pro(trans-4-F)][dK](DOTA)-NH2; disulfide 4-10)
5 | 1 to 10 | CCCC[C@H](NC(=O)[C@@H](NC(=O)[C@H](Cc1c[nH]c2ccc(F)cc12)NC(C)=O)[C@@H](C)O)C(=O)N[C@H]1CSSC[C@@H](C(=O)N[C@@H](Cc2c[nH]c3ncccc23)C(=O)N2C[C@H](F)C[C@H]2C(=O)N[C@H](CCCCNC(=O)CN2CCN(CC(=O)O)CCN(CC(=O)O)CCN(CC(=O)O)CC2)C(N)=O)NC(=O)[C@H](CC(=O)O)NC(=O)[C@H](Cc2cnc[nH]2)NC(=O)[C@H](Cc2ccc(F)cc2)NC(=O)[C@H](CC(N)=O)NC(=O)[C@H](CC(N)=O)NC1=O [compound 132, Ac-(5Fluoro-W)-T-(Nle)-C(3)-N-N-(4Fluoro-F)-H-D-C(3)-(7Aza-W)-(trans4Fluoro-P)-[D-Lys(DOTA)]-NH2] (Ac-[Trp(5-F)]T[Nle]CNN[Phe(4-F)]HDC[Trp(7-aza)][Pro(trans-4-F)][dK](DOTA)-NH2; disulfide 4-10)
6 | 1 to 10 | CC(=O)N[C@@H](Cc1c[nH]c2ccc(F)cc12)C(=O)N[C@H](C(=O)N[C@@H](CC1CCCCC1)C(=O)N[C@H]1CSSC[C@@H](C(=O)N[C@@H](Cc2c[nH]c3ncccc23)C(=O)N2C[C@H](F)C[C@H]2C(=O)N[C@H](CCCCNC(=O)CN2CCN(CC(=O)O)CCN(CC(=O)O)CCN(CC(=O)O)CC2)C(N)=O)NC(=O)[C@H](CC(=O)O)NC(=O)[C@H](Cc2cnc[nH]2)NC(=O)[C@H](Cc2ccc(F)cc2)NC(=O)[C@H](CC(N)=O)NC(=O)[C@H](CC(N)=O)NC1=O)[C@@H](C)O [compound 133, Ac-(5Fluoro-W)-T-(CHA)-C(3)-N-N-(4Fluoro-F)-H-D-C(3)-(7Aza-W)-(trans4Fluoro-P)-[D-Lys(DOTA)]-NH2] (Ac-[Trp(5-F)]T[Cha]CNN[Phe(4-F)]HDC[Trp(7-aza)][Pro(trans-4-F)][dK](DOTA)-NH2; disulfide 4-10)
7 | 1 to 10 | CC(=O)N[C@@H](Cc1c[nH]c2ccc(F)cc12)C(=O)N[C@H](C(=O)N[C@@H](CC1CCC1)C(=O)N[C@H]1CSSC[C@@H](C(=O)N[C@@H](Cc2c[nH]c3ncccc23)C(=O)N2C[C@H](F)C[C@H]2C(=O)N[C@H](CCCCNC(=O)CN2CCN(CC(=O)O)CCN(CC(=O)O)CCN(CC(=O)O)CC2)C(N)=O)NC(=O)[C@H](CC(=O)O)NC(=O)[C@H](Cc2cnc[nH]2)NC(=O)[C@H](Cc2ccc(F)cc2)NC(=O)[C@H](CC(N)=O)NC(=O)[C@H](CC(N)=O)NC1=O)[C@@H](C)O [compound 134, Ac-(5Fluoro-W)-T-(CBA)-C(3)-N-N-(4Fluoro-F)-H-D-C(3)-(7Aza-W)-(trans4Fluoro-P)-[D-Lys(DOTA)]-NH2] (Ac-[Trp(5-F)]T[Cba]CNN[Phe(4-F)]HDC[Trp(7-aza)][Pro(trans-4-F)][dK](DOTA)-NH2; disulfide 4-10)
8 | 1 to 10 | CC(=O)N[C@@H](Cc1c[nH]c2ccc(F)cc12)C(=O)N[C@H](C(=O)N[C@H](C(=O)N[C@H]1CSSC[C@@H](C(=O)N[C@@H](Cc2c[nH]c3ncccc23)C(=O)N2C[C@H](F)C[C@H]2C(=O)N[C@H](CCCCNC(=O)CN2CCN(CC(=O)O)CCN(CC(=O)O)CCN(CC(=O)O)CC2)C(N)=O)NC(=O)[C@H](CC(=O)O)NC(=O)[C@H](Cc2cnc[nH]2)NC(=O)[C@H](Cc2ccc(F)cc2)NC(=O)[C@H](CC(N)=O)NC(=O)[C@H](CC(N)=O)NC1=O)C1CCCCC1)[C@@H](C)O [compound 135, Ac-(5Fluoro-W)-T-(Chg)-C(3)-N-N-(4Fluoro-F)-H-D-C(3)-(7Aza-W)-(trans4Fluoro-P)-[D-Lys(DOTA)]-NH2] (Ac-[Trp(5-F)]T[Chg]CNN[Phe(4-F)]HDC[Trp(7-aza)][Pro(trans-4-F)][dK](DOTA)-NH2; disulfide 4-10)
9 | 1 to 10 | CC(=O)N[C@@H](Cc1c[nH]c2ccc(F)cc12)C(=O)N[C@H](C(=O)N[C@@H](Cc1ccccc1C(F)(F)F)C(=O)N[C@H]1CSSC[C@@H](C(=O)N[C@@H](Cc2c[nH]c3ncccc23)C(=O)N2C[C@H](F)C[C@H]2C(=O)N[C@H](CCCCNC(=O)CN2CCN(CC(=O)O)CCN(CC(=O)O)CCN(CC(=O)O)CC2)C(N)=O)NC(=O)[C@H](CC(=O)O)NC(=O)[C@H](Cc2cnc[nH]2)NC(=O)[C@H](Cc2ccc(F)cc2)NC(=O)[C@H](CC(N)=O)NC(=O)[C@H](CC(N)=O)NC1=O)[C@@H](C)O [compound 136, Ac-(5Fluoro-W)-T-(2CF3-F)-C(3)-N-N-(4Fluoro-F)-H-D-C(3)-(7Aza-W)-(trans4Fluoro-P)-[D-Lys(DOTA)]-NH2] (Ac-[Trp(5-F)]T[Phe(2-CF3)]CNN[Phe(4-F)]HDC[Trp(7-aza)][Pro(trans-4-F)][dK](DOTA)-NH2; disulfide 4-10)
10 | 1 to 10 | CC(=O)N[C@@H](Cc1c[nH]c2ccc(F)cc12)C(=O)N[C@H](C(=O)N[C@H](C(=O)N[C@H]1CSSC[C@@H](C(=O)N[C@@H](Cc2c[nH]c3ncccc23)C(=O)N2CC[C@H]2C(=O)N[C@H](CCCCNC(=O)CN2CCN(CC(=O)O)CCN(CC(=O)O)CCN(CC(=O)O)CC2)C(N)=O)NC(=O)[C@H](CC(=O)O)NC(=O)[C@H](Cc2cnc[nH]2)NC(=O)[C@H](Cc2ccc(C(F)(F)F)cc2)NC(=O)[C@H](CC(N)=O)NC(=O)[C@H](CC(N)=O)NC1=O)C(C)(C)C)[C@@H](C)O [compound 137, Ac-(5Fluoro-W)-T-(Tbg)-C(3)-N-N-(4CF3-F)-H-D-C(3)-(7Aza-W)-(Aze)-[D-Lys(DOTA)]-NH2] (Ac-[Trp(5-F)]T[Tle]CNN[Phe(4-CF3)]HDC[Trp(7-aza)][Aze][dK](DOTA)-NH2; disulfide 4-10)
